Measurements reported in US11661413B2, “Pyrazole compounds or salts thereof, preparation method therefor, herbicidal composition and use thereof” (priority 2015, dated 2023).

What was measured:
rushlike bulrush = experiment: weed control effect in transplanted rice field (pot, water application); assay type: in vivo, Scirpus juncoides; conditions: 500 g a.i./ha, treated at 0.5 leaf stage, 14 days after treatment, naked eye, weed resistant to pyrazosulfuron-ethyl
Method: (§1) Rice field soil was loaded into a 1/1,000,000 ha pot. The seeds of Echinochloa, Scirpus juncoides, Bidens tripartite and Sagittaria trifolia were sowed and gently covered with soil, then left to stand still in greenhouse in the state of 0.5-1 cm of water storage. The tuber of Sagittaria trifolia was planted in the next day or 2 days later. It was kept at 3-4 cm of water storage thereafter. The weeds were treated by dripping the WP or SC water diluents prepared according to the common preparation method of the compounds of the present invention with pipette homogeneously to achieve specified effective amount when Echinochloa, Scirpus juncoides and Bidens tripartite reached 0.5 leaf stage and Sagittaria trifolia reached the time point of primary leaf stage.
(§2) The fertility condition of Echinochloa, Scirpus juncoides, Bidens tripartite and Sagittaria trifolia 14 days after the treatment of the compound of the invention and the fertility condition of rice 21 days after the treatment of the compound of the invention respectively with the naked eye.
(§3) Note: The seeds of barnyard grass, rushlike bulrush, arrowhead and beggartick are collected from Heilongjing Province of China. Tests indicate that the weeds are resistant to common application rate of pyrazosulfuron-ethyl.

Beggartick = experiment: as above; assay type: in vivo, Bidens tripartite; conditions: 500 g a.i./ha, treated at 0.5 leaf stage, 14 days after treatment, naked eye, weed resistant to pyrazosulfuron-ethyl
Method: as §1, §2, §3

Barnyard grass [1] = experiment: as above; assay type: in vivo, Echinochloa; conditions: 500 g a.i./ha, treated at 0.5 leaf stage, 14 days after treatment, naked eye, weed resistant to pyrazosulfuron-ethyl
Method: as §1, §2, §3

Barnyard grass [2] = experiment: weed control effect in post emergence stage, greenhouse pot spray; assay type: in vivo; conditions: sprayed at 2-3 leaf stage, after 3 weeks
Method: (§4) The activity level standard of harmful plant damage (i.e. growth inhibition rate) is as follows: The above described growth control rate is fresh weight control rate. Monocotyledonous and dicotyledonous weed seeds and main crop seeds (i.e. wheat, corn, rice, soybean, cotton, oilseed, millet and Sorghum) were put into a plastic pot loaded with soil. Then covered with 0.5-2 cm soil, the seeds were allowed to grow in good greenhouse environment. The test plants were treated at 2-3 leaf stage 2-3 weeks after sowing. […] The solution was sprayed to the plants with a sprayer. Then the plants were cultured for 3 weeks in the greenhouse.

Flixweed = experiment: as above; assay type: in vivo; conditions: 16 g/mu, sprayed at 2-3 leaf stage, after 3 weeks
Method: as §4

Arrowhead = experiment: weed control effect in transplanted rice field (pot, water application); assay type: in vivo, Sagittaria trifolia; conditions: 500 g a.i./ha, treated at primary leaf stage, 14 days after treatment, naked eye, weed resistant to pyrazosulfuron-ethyl
Method: as §1, §2, §3

SMILES	weed control effect (activity level), rushlike bulrush (rushlike bulrush)	weed control effect (activity level), Beggartick (Beggartick)	weed control effect (activity level), Barnyard grass (Barnyard grass [1])	weed control effect (activity level), Barnyard grass (Barnyard grass [2]; 1 g/mu)	weed control effect (activity level), Barnyard grass (Barnyard grass [2]; 2 g/mu)	weed control effect (activity level), Barnyard grass (Barnyard grass [2]; 4 g/mu)	weed control effect (activity level), Barnyard grass (Barnyard grass [2]; 8 g/mu)	weed control effect (activity level), Barnyard grass (Barnyard grass [2]; 16 g/mu)	weed control effect (activity level), Flixweed (Flixweed)	weed control effect (activity level), Arrowhead (Arrowhead)
Cc1cnn(Cc2c(S(C)(=O)=O)ccc(C(=O)c3c(C)nn(C)c3O)c2Cl)c1 [Compound 1]	10	9 (above 90% growth inhibition rate)	10	4 (above 30% growth inhibition rate)	7 (above 70% growth inhibition rate)	8 (above 80% growth inhibition rate)	10	10	10	8 (above 80% growth inhibition rate)
Cc1cc(C)n(Cc2c(S(C)(=O)=O)ccc(C(=O)c3c(C)nn(C)c3O)c2Cl)n1 [Compound 4]	10	9 (above 90% growth inhibition rate)	10	3 (above 30% growth inhibition rate)	4 (above 30% growth inhibition rate)	5 (above 50% growth inhibition rate)	5 (above 50% growth inhibition rate)	7 (above 70% growth inhibition rate)	10	9 (above 90% growth inhibition rate)
CCc1nn(C)c(O)c1C(=O)c1ccc(S(C)(=O)=O)c(Cn2cc(Cl)cn2)c1Cl [Compound 5]	10	10	10	2 (above 20% growth inhibition rate)	2 (above 20% growth inhibition rate)	4 (above 30% growth inhibition rate)	7 (above 70% growth inhibition rate)	8 (above 80% growth inhibition rate)	10	10
Cc1cc(C)n(Cc2c(S(C)(=O)=O)ccc(C(=O)c3c(C4CC4)nn(C)c3O)c2Cl)n1 [Compound 13]	9 (above 90% growth inhibition rate)	9 (above 90% growth inhibition rate)	10	2 (above 20% growth inhibition rate)	2 (above 20% growth inhibition rate)	2 (above 20% growth inhibition rate)	5 (above 50% growth inhibition rate)	7 (above 70% growth inhibition rate)	10	9 (above 90% growth inhibition rate)
Cc1cc(C)n(Cc2c(S(C)(=O)=O)ccc(C(=O)c3c(C)nn(C)c3OCC(=O)OC(C)(C)C)c2Cl)n1 [Compound 35]	10	10	10	3 (above 30% growth inhibition rate)	3 (above 30% growth inhibition rate)	4 (above 30% growth inhibition rate)	4 (above 30% growth inhibition rate)	5 (above 50% growth inhibition rate)	10	9 (above 90% growth inhibition rate)
CCOc1c(C(=O)c2ccc(S(C)(=O)=O)c(Cn3nc(C)cc3C)c2Cl)c(C)nn1C [Compound 37]				0	1 (above 1-10% growth inhibition rate)	1 (above 1-10% growth inhibition rate)	2 (above 20% growth inhibition rate)	2 (above 20% growth inhibition rate)	2 (above 20% growth inhibition rate)	
CCCCCOc1c(C(=O)c2ccc(S(C)(=O)=O)c(Cn3nc(C)cc3C)c2Cl)c(C)nn1C [Compound 38]				0	1 (above 1-10% growth inhibition rate)	1 (above 1-10% growth inhibition rate)	2 (above 20% growth inhibition rate)	2 (above 20% growth inhibition rate)	2 (above 20% growth inhibition rate)	
Cc1cc(C)n(Cc2c(S(C)(=O)=O)ccc(C(=O)c3c(C)nn(C)c3OC(=O)c3nc(Cl)ccc3Cl)c2Cl)n1 [Compound 40]				3 (above 30% growth inhibition rate)	5 (above 50% growth inhibition rate)	5 (above 50% growth inhibition rate)	7 (above 70% growth inhibition rate)	8 (above 80% growth inhibition rate)	10	
Cc1nn(C)c(O)c1C(=O)c1ccc(S(C)(=O)=O)c(Cn2nc(C(F)(F)F)cc2C(F)(F)F)c1Cl [Compound 41]				4 (above 30% growth inhibition rate)	5 (above 50% growth inhibition rate)	6 (above 60% growth inhibition rate)	7 (above 70% growth inhibition rate)	7 (above 70% growth inhibition rate)	10	
